In patent publication US11702422B2, “Imidazopyridazines as modulators of IL-17” (Janssen Pharmaceutica NV, priority 2020, dated 2023) one finds IC50 data, which are given here for 19 molecules.

For assay [1], the target named is IL-17A(FLAG-Tagged): IL-17RA(His-Tagged) (Homo sapiens, UniProt Q16552, K93Q). The assay is described as follows: IL-17A(FLAG-Tagged): IL-17RA(His-Tagged) Binding Disruption Eu-HTRF Assay. The conditions noted are these: IL-17A/IL-17RA binding disruption, simple average if tested more than once. The method in brief:
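IC50 comes from a one-site competition fit of the HTRF 665/620 nm ratio. Compound dilutions (2-fold, 22 points) were held 1 h rt with FLAG-tagged IL-17A dimer, then His-tagged IL-17RA plus Eu-cryptate anti-FLAG and D2 anti-His antibodies were added for 2 h rt.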
In general terms: Time-resolved FRET reads energy transfer from a long-lived donor to a nearby acceptor.

For assay [2], the system named is IL-17A-induced G-CSF production in human normal keratinocyte (NHK). The assay is described as follows: NHK Assay: IL-17A-induced G-CSF production in human normal keratinocytes. Format: cell-based. The note with it: 24 h, adult normal human keratinocytes, IL-17A 5 ng/mL, simple average if tested more than once. The method in brief:
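Adult normal human keratinocytes were seeded at 3000-4000 cells/well. Recombinant human IL-17A was pre-incubated 1 h at rt with titrated compound, then added to cells (final 5 ng/mL IL-17A, 0.2% DMSO, 5% FBS) for 24 h at 37° C. Supernatant G-CSF was measured by HTRF against a standard curve to give IC50.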

The structures appear in SMILES notation.

UniProt Q16552, sequence (Q16552 with tags, fused parts or gaps K93Q): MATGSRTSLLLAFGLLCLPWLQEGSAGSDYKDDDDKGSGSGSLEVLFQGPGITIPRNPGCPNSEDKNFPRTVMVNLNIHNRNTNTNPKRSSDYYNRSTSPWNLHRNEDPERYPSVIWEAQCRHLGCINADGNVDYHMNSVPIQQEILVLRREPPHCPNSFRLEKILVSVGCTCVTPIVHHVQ

The IC50 is the concentration that inhibits the measured activity by half. Read a low IC50 as higher potency. `CC(C)c1cc(C(=O)N[C@H](c2cn3ncc([C@H](NC(=O)CCC(F)(F)F)C4CC4)cc3n2)C2CCC(F)(F)CC2)ncn1` [Example 162, N—((S)-(7-((R)-Cyclopropyl(4,4,4-trifluorobutanamido)methyl)imidazo[1,2-b]pyridazin-2-yl)(4,4-difluorocyclohexyl)methyl)-6-isopropylpyrimidine-4-carboxamide]: the IC50 was 150 nM in assay [1] and 940 nM in assay [2] (Homo sapiens, Keratinocyte).

Consider `O=C(CCC(F)(F)F)N[C@@H](c1cnn2cc([C@@H](NC(=O)c3cncc(C(F)(F)F)c3)C3CCC(F)(F)CC3)nc2c1)C1CC1` [Example 178, N—((S)-(7-((R)-Cyclopropyl(4,4,4-trifluorobutanamido)methyl)imidazo[1,2-b]pyridazin-2-yl)(4,4-difluorocyclohexyl)methyl)-5-(trifluoromethyl)nicotinamide], for which the IC50 in assay [1] worked out at 67 nM; in assay [2] (Homo sapiens, Keratinocyte) it was 450 nM.

With `O=C(CCC(F)(F)F)NC(c1cnn2cc([C@@H](NC(=O)c3ccn(CCC(F)(F)F)n3)C3CCC(F)(F)CC3)nc2c1)C1CC1` (single isomer, unassigned) [Example 21, N—((S)-(7-((R*)-Cyclopropyl(4,4,4-trifluorobutanamido)methyl)imidazo[1,2-b]pyridazin-2-yl)(4,4-difluorocyclohexyl)methyl)-1-(3,3,3-trifluoropropyl)-1H-pyrazole-3-carboxamide], the IC50 in assay [1] came out at 230 nM; in assay [2] (Homo sapiens, Keratinocyte), 720 nM.

For `Cc1nonc1C(=O)N[C@H](c1cn2ncc(C(NC(=O)CC3(C(F)(F)F)CC3)C3(C#N)CC3)cc2n1)C1CCC(F)(F)CC1` (single isomer, unassigned) [Example 427, N—((S)-(7-((S*)-(1-Cyanocyclopropyl)(2-(1-(trifluoromethyl)cyclopropyl)acetamido)methyl)imidazo[1,2-b]pyridazin-2-yl)(4,4-difluorocyclohexyl)methyl)-4-methyl-1,2,5-oxadiazole-3-carboxamide], the results for the IC50 in assay [1] and in assay [2] were 100 nM and 370 nM, respectively.

For the molecule `Cc1cc(C(=O)N[C@H](c2cn3ncc([C@H](NC(=O)CCC(F)(F)F)C4CC4)cc3n2)C2CCC(F)(F)CC2)cnn1` [Example 418, N—((S)-(7-((R)-Cyclopropyl(4,4,4-trifluorobutanamido)methyl)imidazo[1,2-b]pyridazin-2-yl)(4,4-difluorocyclohexyl)methyl)-6-methylpyridazine-4-carboxamide], the IC50 in assay [1] was 4600 nM; in assay [2] (Homo sapiens, Keratinocyte), more than 20000 nM.

For the molecule `CC(C)n1nccc1C(=O)N[C@H](c1cn2ncc([C@H](NC(=O)COCC(F)(F)F)C3CC3)cc2n1)C1CCC(F)(F)CC1` [Example 303, N—((S)-(7-((R)-Cyclopropyl(2-(2,2,2-trifluoroethoxy)acetamido)methyl)imidazo[1,2-b]pyridazin-2-yl)(4,4-difluorocyclohexyl)methyl)-1-isopropyl-1H-pyrazole-5-carboxamide], the concentration for half-maximal inhibition (IC50) was 250 nM in assay [1] and 280 nM in assay [2] (Homo sapiens, Keratinocyte).

As to `O=C(CCC(F)(F)F)N[C@@H](c1cnn2cc([C@@H](NC(=O)c3ccccn3)C3CCC(F)(F)CC3)nc2c1)C1CC1` [Example 456, N—((S)-(7-((R)-Cyclopropyl(4,4,4-trifluorobutanamido)methyl)imidazo[1,2-b]pyridazin-2-yl)(4,4-difluorocyclohexyl)methyl)picolinamide], the IC50 in assay [1] is 780 nM; in assay [2] (Homo sapiens, Keratinocyte), more than 20000 nM.

For the molecule `O=C(CCC(F)(F)F)NC(c1cnn2cc([C@@H](NC(=O)c3nnsc3C3CC3)C3CCC(F)(F)CC3)nc2c1)C1CC1` (single isomer, unassigned) [Example 466, 5-Cyclopropyl-N—((S)-(7-((R*)-cyclopropyl(4,4,4-trifluorobutanamido)methyl)imidazo[1,2-b]pyridazin-2-yl)(4,4-difluorocyclohexyl)methyl)-1,2,3-thiadiazole-4-carboxamide], the IC50 worked out at 34 nM in assay [1] and 210 nM in assay [2] (Homo sapiens, Keratinocyte).

In the case of `Cc1nonc1C(=O)N[C@H](c1cn2ncc([C@H](NC(=O)C(C)CC(F)F)C3CC3)cc2n1)C1CCC(F)(F)CC1` (single isomer, unassigned) [Example 329, N—((S)-(7-((R)-Cyclopropyl((S*)-4,4-difluoro-2-methylbutanamido)methyl)imidazo[1,2-b]pyridazin-2-yl)(4,4-difluorocyclohexyl)methyl)-4-methyl-1,2,5-oxadiazole-3-carboxamide], the IC50 was 930 nM in assay [1] and 2200 nM in assay [2] (Homo sapiens, Keratinocyte).

`Cc1nonc1C(=O)N[C@H](c1cn2ncc([C@H](NC(=O)[C@@H](F)[C@@H](C)C(F)(F)F)C3CC3)cc2n1)C1CCC(F)(F)CC1` (relative stereo) [Example 354, N—((S)-(7-((R)-Cyclopropyl((2S*,3R*)-2,4,4,4-tetrafluoro-3-methylbutanamido)methyl)imidazo[1,2-b]pyridazin-2-yl)(4,4-difluorocyclohexyl)methyl)-4-methyl-1,2,5-oxadiazole-3-carboxamide]: the IC50 in assay [1] stood at 730 nM; in assay [2] (Homo sapiens, Keratinocyte) it was 2700 nM.

For `Cc1nonc1C(=O)N[C@H](c1cn2ncc([C@H](NC(=O)CC3CC(F)(F)C3)C3CC3)cc2n1)[C@@H]1C[C@@H]2[C@H](C1)C2(F)F` (relative stereo) [Example 405, N—((S*)-(7-((R)-Cyclopropyl(2-(3,3-difluorocyclobutyl)acetamido)methyl)imidazo[1,2-b]pyridazin-2-yl)((1R,3s,5S)-6,6-difluorobicyclo[3.1.0]hexan-3-yl)methyl)-4-methyl-1,2,5-oxadiazole-3-carboxamide], the IC50 in assay [1] worked out at 100 nM; in assay [2] (Homo sapiens, Keratinocyte), 350 nM.

On to `CC(C)n1nccc1C(=O)N[C@H](c1cn2ncc(C(NC(=O)CC(C)(C)O)C3CC3)cc2n1)C1CCC(F)(F)CC1` (single isomer, unassigned) [Example 136, N—((S)-(7-((R*)-Cyclopropyl(3-hydroxy-3-methylbutanamido)methyl)imidazo[1,2-b]pyridazin-2-yl)(4,4-difluorocyclohexyl)methyl)-1-isopropyl-1H-pyrazole-5-carboxamide], for which the IC50 in assay [1] was found to be 400 nM; in assay [2] it was 790 nM.

On to `O=C(CCC(F)(F)F)N[C@@H](c1cnn2cc([C@@H](NC(=O)c3cccnc3)C3CCC(F)(F)CC3)nc2c1)C1CC1` [Example 192, N—((S)-(7-((R)-Cyclopropyl(4,4,4-trifluorobutanamido)methyl)imidazo[1,2-b]pyridazin-2-yl)(4,4-difluorocyclohexyl)methyl)nicotinamide], for which the IC50 in assay [1] was determined as 240 nM; in assay [2] (Homo sapiens, Keratinocyte), 1200 nM.

Consider `O=C(CCC(F)(F)F)N[C@H](c1cnn2cc([C@H](NC(=O)c3conc3C3CCCC3)C3CCC(F)(F)CC3)nc2c1)C1CC1` (stereo in doubt) [Example 117, 3-Cyclopentyl-N—((R)-(7-((S)-cyclopropyl(4,4,4-trifluorobutanamido)methyl)imidazo[1,2-b]pyridazin-2-yl)(4,4-difluorocyclohexyl)methyl)isoxazole-4-carboxamide], for which the IC50 in assay [1] was 49 nM; in assay [2] (Homo sapiens, Keratinocyte), 120 nM.

On to `O=C(CCC(F)(F)F)N[C@@H](c1cnn2cc([C@@H](NC(=O)C3(F)CC3)C3CCC(F)(F)CC3)nc2c1)C1CC1` [Example 60, N—((S)-(7-((R)-Cyclopropyl(4,4,4-trifluorobutanamido)methyl)imidazo[1,2-b]pyridazin-2-yl)(4,4-difluorocyclohexyl)methyl)-1-fluorocyclopropane-1-carboxamide], for which the IC50 in assay [1] came to 390 nM; in assay [2] (Homo sapiens, Keratinocyte), 3500 nM.

Take `CCn1ncc(C(=O)N[C@H](c2cn3ncc([C@H](NC(=O)CCC(F)(F)F)C4CC4)cc3n2)C2CCC(F)(F)CC2)n1` [Example 59, N—((S)-(7-((R)-Cyclopropyl(4,4,4-trifluorobutanamido)methyl)imidazo[1,2-b]pyridazin-2-yl)(4,4-difluorocyclohexyl)methyl)-2-ethyl-2H-1,2,3-triazole-4-carboxamide]: the IC50 amounted to 420 nM in assay [1] and 3600 nM in assay [2] (Homo sapiens, Keratinocyte).

`O=C(CC1CC(F)(F)C1)NC(c1cnn2cc([C@@H](NC(=O)c3cnn(CCC(F)(F)F)n3)C3CCC(F)(F)CC3)nc2c1)C1CC1` (single isomer, unassigned) [Example 22, N—((S)-(7-((R*)-Cyclopropyl(2-(3,3-difluorocyclobutyl)acetamido)methyl)imidazo[1,2-b]pyridazin-2-yl)(4,4-difluorocyclohexyl)methyl)-2-(3,3,3-trifluoropropyl)-2H-1,2,3-triazole-4-carboxamide]: the IC50 came out at 140 nM in assay [1] and 320 nM in assay [2] (Homo sapiens, Keratinocyte).

Regarding `O=C(CC1CC(F)(F)C1)N[C@@H](c1cnn2cc([C@@H](NC(=O)c3nonc3N3CCOCC3)C3CCC(F)(F)CC3)nc2c1)C1CC1` [Example 408, N—((S)-(7-((R)-Cyclopropyl(2-(3,3-difluorocyclobutyl)acetamido)methyl)imidazo[1,2-b]pyridazin-2-yl)(4,4-difluorocyclohexyl)methyl)-4-morpholino-1,2,5-oxadiazole-3-carboxamide], the IC50 came to 54 nM in assay [1] and 370 nM in assay [2] (Homo sapiens, Keratinocyte).

In the case of `COCc1nocc1C(=O)N[C@H](c1cn2ncc([C@H](NC(=O)CCC(F)(F)F)C3CC3)cc2n1)C1CCC(F)(F)CC1` [Example 102, N—[(S)-[7-[(R)-Cyclopropyl-(4,4,4-trifluorobutanoylamino)methyl]imidazo[1,2-b]pyridazin-2-yl]-(4,4-difluorocyclohexyl)methyl]-3-(methoxymethyl)isoxazole-4-carboxamide], the IC50 in assay [1] was found to be 120 nM; in assay [2] (Homo sapiens, Keratinocyte), 270 nM.
